Where a name gives a salt, the structure may show the parent alone.
Columns and labels:
[1] = target: T1, human recombinant V2 vasopressin receptors (Homo sapiens, UniProt P30518); experiment: in vitro binding test, displacement of [H3]-AVP from V2 vasopressin receptors; details: CHO membranes, 3.5 nM [H3]-AVP, 45 minutes at 25° C.
T1 construct: expressed in transfected cells; host or cells: CHO
Description: The affinity of the compounds of the invention for the V2 vasopressin receptors was measured in in vitro binding tests, as described in J. Pharmacol. Exp. Ther., (2002), 300: pp. 1122-1130.
Plasma membranes (about 20 μg/ml) obtained from CHO tissue or cell line expressing human recombinant V2 vasopressin receptors, are incubated for 45 minutes at 25° C. in 200 μL of TRIS-HCl buffer (50 mM; pH 8.2) containing 2 mM of MgCl2, 1 mM of EDTA, 0.1% of BSA, 1/500 protease inhibitor cocktail (Sigma #P2714) and 3.5 nM of [H3]-AVP. The reaction is stopped by filtration and washing on GF/B filters. Nonspecific binding is determined in the presence of 1 μM of AVP. The compounds of the invention, dissolved beforehand to a concentration of 10^−2 M in DMSO, are tested in a dilution series.
For each concentration the results are expressed as percentage inhibition of specific binding. An IC50 (concentration of product inhibiting 50% of specific binding) is determined for each of the products using the in-house software Biost@t-SPEED v1.3 which employs the 4-parameter logistic model of Ratkovsky and Reedy (1986). Adjustment is obtained by nonlinear regression using Marquardt's algorithm of the SAS v8.2 software running under UNIX.

[2] = target: T2, human oxytocin receptors (Homo sapiens, UniProt P30559); experiment: in vitro binding test, displacement of a radioiodated oxytocin analogue from oxytocin receptors; details: for IC50: membrane preparation of human oxytocin receptors; for IC50 OXT/IC50 V2: selectivity ratio versus V2
T2 sequence (P30559 1-389): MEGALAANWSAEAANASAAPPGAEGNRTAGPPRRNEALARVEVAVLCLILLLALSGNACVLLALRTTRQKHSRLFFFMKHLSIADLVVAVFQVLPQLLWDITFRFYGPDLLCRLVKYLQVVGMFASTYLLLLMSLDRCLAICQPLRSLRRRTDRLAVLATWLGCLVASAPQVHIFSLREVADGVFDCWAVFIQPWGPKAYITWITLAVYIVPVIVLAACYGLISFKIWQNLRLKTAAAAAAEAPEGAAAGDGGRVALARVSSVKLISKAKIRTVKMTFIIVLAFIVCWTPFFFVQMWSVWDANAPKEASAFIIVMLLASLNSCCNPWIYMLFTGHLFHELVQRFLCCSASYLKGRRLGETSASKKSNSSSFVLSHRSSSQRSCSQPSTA
Description: (§1) The affinity of the compounds of the invention for the Via and V1b vasopressin receptors and the affinity of the compounds of the invention for the oxytocin (OXT) receptors were also tested.
The affinity of the compounds according to the invention for the OXT receptors was determined in an in vitro binding test using the method described by J. Elands et al. in Eur. J. Pharmacol. 1987, 147, 197-207. This method comprises in vitro investigation of the displacement of a radioiodated analogue of oxytocin from the oxytocin receptors in a membrane preparation of human oxytocin receptors.

[3] = target: V1a receptors (Homo sapiens, UniProt P37288); experiment: affinity for V1a receptors (method of Thibonnier et al.); format: binding; details: for IC50 V1a/IC50 V2: selectivity ratio versus V2
Description: as §1
(§2) The affinity of the compounds according to the invention for human Via receptors was determined according to the method described by M. Thibonnier et al. in J. Biol. Chem. 1994, 269, 3304-3310. The affinity of the compounds according to the invention for the V1b receptors was determined according to the method described by T. Sugimoto et al. in J. Biol. Chem. 1994, 269, 27088-27092.

[4] = target: T3, V1b receptors (Homo sapiens, UniProt P47901); experiment: affinity for V1b receptors (method of Sugimoto et al.); format: binding; details: for IC50 V1b/IC50 V2: selectivity ratio versus V2
T3 sequence (P47901 1-424): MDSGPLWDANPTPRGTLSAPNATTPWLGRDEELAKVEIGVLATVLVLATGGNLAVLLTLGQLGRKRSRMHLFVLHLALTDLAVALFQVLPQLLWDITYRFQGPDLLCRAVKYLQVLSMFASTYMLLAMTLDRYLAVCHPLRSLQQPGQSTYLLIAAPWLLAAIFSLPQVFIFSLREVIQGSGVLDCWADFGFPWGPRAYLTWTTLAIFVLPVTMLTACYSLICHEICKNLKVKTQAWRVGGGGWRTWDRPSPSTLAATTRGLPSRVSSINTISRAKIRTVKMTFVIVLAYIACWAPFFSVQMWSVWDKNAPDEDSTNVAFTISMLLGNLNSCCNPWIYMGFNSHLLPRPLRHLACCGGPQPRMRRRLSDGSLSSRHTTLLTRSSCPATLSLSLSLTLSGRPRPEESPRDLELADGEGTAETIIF
Description: as §1, §2

Sequence of V1a receptors (P37288 whole entry): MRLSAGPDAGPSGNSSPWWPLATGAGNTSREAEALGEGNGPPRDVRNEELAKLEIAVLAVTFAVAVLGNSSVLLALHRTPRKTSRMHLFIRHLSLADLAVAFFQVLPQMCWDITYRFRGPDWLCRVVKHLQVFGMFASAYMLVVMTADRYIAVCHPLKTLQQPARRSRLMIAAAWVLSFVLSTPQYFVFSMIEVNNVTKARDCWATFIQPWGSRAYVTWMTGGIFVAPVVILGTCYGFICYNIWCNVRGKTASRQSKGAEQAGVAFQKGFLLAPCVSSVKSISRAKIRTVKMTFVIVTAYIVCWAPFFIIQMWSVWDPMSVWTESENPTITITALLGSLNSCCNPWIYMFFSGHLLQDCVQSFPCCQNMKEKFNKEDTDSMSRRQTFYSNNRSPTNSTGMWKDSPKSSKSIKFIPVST
T1 sequence (P30518 whole entry): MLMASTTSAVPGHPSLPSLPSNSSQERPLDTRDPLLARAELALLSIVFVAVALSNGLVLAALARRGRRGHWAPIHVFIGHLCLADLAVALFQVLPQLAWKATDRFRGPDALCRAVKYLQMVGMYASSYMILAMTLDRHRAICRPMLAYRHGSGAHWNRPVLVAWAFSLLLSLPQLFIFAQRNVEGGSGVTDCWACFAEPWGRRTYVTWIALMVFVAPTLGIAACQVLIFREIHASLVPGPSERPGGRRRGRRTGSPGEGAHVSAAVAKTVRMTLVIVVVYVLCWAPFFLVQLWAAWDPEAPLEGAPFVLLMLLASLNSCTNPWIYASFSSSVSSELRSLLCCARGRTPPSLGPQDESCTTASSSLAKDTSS

Row | IC50 [1] [nM] | IC50 [2] [nM] | IC50 OXT/IC50 V2 [2] | IC50 [3] [nM] | IC50 V1a/IC50 V2 [3] | IC50 [4] [nM] | IC50 V1b/IC50 V2 [4] | melting point [°C] | Structure (SMILES)
1 | – | – | – | – | – | – | – | 188 | CCOc1ccc2c(c1)C(C)(c1cc(C(=O)O)ccc1Cl)C(=O)N2S(=O)(=O)c1ccc(C(=O)NC(C)(C)C)cc1 (stereo not shown) [Example 48, 3-[1-(4-tert-Butylcarbamoyl-benzenesulphonyl)-5-ethoxy-3-methyl-2-oxo-2,3-dihydro-1H-indol-3-yl]-4-chloro-benzoic acid]
2 | 1.3 | 700 | >100 | 730 | >100 | > 1000 | >100 | 216 | CCOc1ccc2c(c1)C(C)(c1cc(C(=O)N[C@@H]3CCNC3)ccc1Cl)C(=O)N2S(=O)(=O)c1ccc(C(=O)NC(C)(C)C)cc1OC (single isomer, unassigned) [Example 43]
3 | 2.6 | 130 | 50 | 310 | >100 | > 1000 | >100 | 166 | COc1cc(C(=O)NC(C)(C)C)ccc1S(=O)(=O)N1C(=O)C(C)(c2ccccc2Cl)c2cc(O)ccc21 (stereo not shown) [Example 144]
4 | – | – | – | – | – | – | – | 204 | CCOc1ccc2c(c1)C(C)(c1cc(C(=O)NCCN)ccc1Cl)C(=O)N2S(=O)(=O)c1ccc(C(=O)NC(C)(C)C)cc1OC (stereo not shown) (as salt: hydrochloride) [Example 47, N-tert-Butyl-4-{3-[2-chloro-5-(2-aminoethylamino-carbonyl)-phenyl]-5-ethoxy-3-methyl-2-oxo-2,3-dihydro-indole-1-sulphonyl}-3-methoxy-benzamide]
5 | 2.5 | > 1000 | >100 | 630 | >100 | > 1000 | >100 | 180 | CCOc1ccc2c(c1)C(C)(c1cc(NC(=O)C3CCN(C)CC3)ccc1Cl)C(=O)N2S(=O)(=O)c1ccc(C(=O)NC(C)(C)C)cc1OC (stereo not shown) [Example 62, 1-methylpiperidine-4-carboxylic acid {3-[1-(4-tert-butylcarbamoyl-2-methoxy-benzenesulphonyl)-5-ethoxy-3-methyl-2-oxo-2,3-dihydro-1H-indol-3-yl]-4-chlorophenyl}-amide]
6 | – | – | – | – | – | – | – | 128 | CCOc1ccc2c(c1)C(C)(c1c(F)cccc1Cl)C(=O)N2S(=O)(=O)c1ccc(C(=O)NC(C)(C)C)cc1 (stereo not shown) [Example 125, N-tert-butyl-4-[3-methyl-3-(2-chloro-6-fluorophenyl)-5-ethoxy-2-oxo-2,3-dihydro-indole-1-sulphonyl]benzamide]
7 | – | – | – | – | – | – | – | 86 | CCOc1ccc2c(c1)C(C)(c1cccc(OCCCN(C)C)c1)C(=O)N2S(=O)(=O)c1ccc(C(=O)NC(C)(C)C)cc1 (stereo not shown) [Example 145, N-tert-Butyl-4-{3-[3-(3-dimethylaminopropoxy)phenyl]-5-ethoxy-3-methyl-2-oxo-2,3-dihydroindole-1-sulphonyl}benzamide]
8 | – | – | – | – | – | – | – | 89 | CCOc1ccc2c(c1)C(C)(c1ccccc1)C(=O)N2S(=O)(=O)c1ccc(C(=O)NC(C)(C)C)cc1 (stereo not shown) [Example 98, N-tert-butyl-4-[3-methyl-3-phenyl-5-ethoxy-2-oxo-2,3-dihydroindole-1-sulphonyl]-benzamide]
9 | – | – | – | – | – | – | – | 134 | CC(C)(C)NC(=O)c1ccc(S(=O)(=O)N2C(=O)C(C)(c3ccccc3Cl)c3cc(OCC(F)(F)F)ccc32)cc1 (stereo not shown) [Example 143, N-tert-Butyl-4-[3-(2-chlorophenyl)-3-methyl-2-oxo-5-(2,2,2-trifluoroethoxy)-2,3-di-hydroindole-1-sulphonyl]benzamide]
10 | 5.2 | 350 | 67 | > 1000 | >100 | > 1000 | >100 | 124 | CCOc1ccc2c(c1)C(C)(c1cc(C(=O)NCCN3CCOCC3)ccc1Cl)C(=O)N2S(=O)(=O)c1ccc(C(=O)NC(C)(C)C)cc1OC (stereo not shown) [Example 36, 4-chloro-3-[1-(4-tert-butylcarbamoyl-2-methoxybenzenesulphonyl)-5-ethoxy-3-methyl-2-oxo-2,3-dihydro-1H-indol-3-yl]-N-(2-morpholin-4-ylethyl)benzamide]
11 | – | – | – | – | – | – | – | 138 | CCOc1ccc2c(c1)C(C)(c1ccccc1Cl)C(=O)N2S(=O)(=O)c1ccc(C(=O)NC(C)(C)CC)cc1 (stereo not shown) [Example 4, 4-[3-(2-Chloro-phenyl)-5-ethoxy-3-methyl-2-oxo-2,3-dihydro-indole-1-sulphonyl]-N-(1,1-dimethyl-propyl)-benzamide]
12 | – | – | – | – | – | – | – | 200 | CCOc1ccc2c(c1)C(C)(c1cc(C(=O)O)ccc1Cl)C(=O)N2S(=O)(=O)c1ccc(C(=O)NC(C)(C)C)cc1OC (stereo not shown) [Example 19, 3-[1-(4-tert-Butylcarbamoyl-2-methoxy-benzenesulphonyl)-5-ethoxy-3-methyl-2-oxo-2,3-dihydro-1H-indol-3-yl]-4-chloro-benzoic acid]
13 | – | – | – | – | – | – | – | 101 | CCOc1ccc2c(c1)C(C)(c1cccc(OC)c1)C(=O)N2S(=O)(=O)c1ccc(C(=O)NC(C)(C)C)cc1 (stereo not shown) [Example 103, N-tert-butyl-4-[3-(3-methoxyphenyl)-5-ethoxy-3-methyl-2-oxo-2,3-dihydroindole-1-sulphonyl]benzamide]
14 | – | – | – | – | – | – | – | 166 | CCOc1ccc2c(c1)C(C)(c1cc(N)ccc1Cl)C(=O)N2S(=O)(=O)c1ccc(C(=O)NC(C)(C)C)cc1OC (stereo not shown) [Example 55, 4-[3-(5-Amino-2-chloro-phenyl)-5-ethoxy-3-methyl-2-oxo-2,3-dihydro-indole-1-sulphonyl]-N-tert-butyl-3-methoxy-benzamide]
15 | – | – | – | – | – | – | – | 116 | CCOc1ccc2c(c1)C(C)(c1ccccc1F)C(=O)N2S(=O)(=O)c1ccc(C(=O)NC(C)(C)C)cc1 (stereo not shown) [Example 101, N-tert-butyl-4-[3-methyl-3-(2-fluorophenyl)-5-ethoxy-2-oxo-2,3-dihydroindole-1-sulphonyl]benzamide]
16 | – | – | – | – | – | – | – | 130 | CCOc1ccc2c(c1)C(C)(c1cc(C(=O)N3CC4CCN(C)C4C3)ccc1Cl)C(=O)N2S(=O)(=O)c1ccc(C(=O)NC(C)(C)C)cc1OC (stereo not shown) [Example 46, N-tert-Butyl-4-{3-[2-chloro-5-(1-methyl-hexahydro-pyrrolo[3,4-b]pyrrole-5-carbonyl)-phenyl]-5-ethoxy-3-methyl-2-oxo-2,3-dihydro-indole-1-sulphonyl}-3-methoxy-benzamide]

Row | Structure (SMILES) | IC50 [1] [nM] | IC50 [2] [nM] | IC50 OXT/IC50 V2 [2] | IC50 [3] [nM] | IC50 V1a/IC50 V2 [3] | IC50 [4] [nM] | IC50 V1b/IC50 V2 [4] | melting point [°C]
17 | CCNC(=O)c1ccc(Cl)c(C2(C)C(=O)N(S(=O)(=O)c3ccc(C(=O)NC(C)(C)C)cc3OC)c3ccc(OCC)cc32)c1 (stereo not shown) [Example 21, 4-chloro-3-[1-(4-tert-butylcarbamoyl-2-methoxybenzenesulphonyl)-5-ethoxy-3-methyl-2-oxo-2,3-dihydro-1H-indol-3-yl]-N-ethylbenzamide] | 3 | > 1000 | >100 | 340 | >100 | > 1000 | >100 | 176

Reference: patent US20100069384A1, “5-ALKYLOXY-INDOLIN-2-ONE DERIVATIVES, PREPARATION THEREOF AND APPLICATION THEREOF IN THERAPY” (SANOFI-AVENTIS, priority 2006, published 2010)
